Format in all cases: biochemical, Streptomyces hygroscopicus
The subject of series [1] is T1, NC(=O)CC[C@H](NC(=O)OCc1ccccc1)C(=O)NCC(=O)O.
T1 construct: pro-TGase behind XPR2 pre signal, secreted by Yarrowia lipolytica Po1h (pINA1297), N-glycosylated; no tag mentioned
Description: purified protein. The settings on record: hydroxylamine co-substrate (assay b48), 50 mmol/L Tris-HCl pH 6.0, substrate 6-30 mmol/L (below Km), dispase-activated, 37.0 °C.

Series [2] has as its system T2, activated pro-TGase.
T2 construct: pro-TGase behind XPR2 pre signal, secreted by Yarrowia lipolytica Po1h (pINA1297), N-glycosylated; no tag mentioned
As to the kind of experiment: colorimetric hydroxamate assay at […] nm, Lineweaver-Burk. Particulars: hydroxylamine co-substrate (assay b48), 50 mmol/L Tris-HCl pH 6.0; substrate 6-30 mmol/L (below Km); dispase-activated; read-out: N355Q.

Series [3] deals with T2, activated pro-TGase. The series is described as above. Particulars: hydroxylamine co-substrate (assay b48), 50 mmol/L Tris-HCl pH 6.0; substrate 6-30 mmol/L (below Km); dispase-activated; read-out: N160Q/N355Q.
The subject of series [4] is T2, activated pro-TGase. The series is described as above. Particulars: hydroxylamine co-substrate (assay b48), 50 mmol/L Tris-HCl pH 6.0; substrate 6-30 mmol/L (below Km); dispase-activated; read-out: N160Q.

Like-named read-outs stand apart in the source and are kept apart here. Peptide text beside a SMILES is read from it. * marks the point of attachment. Cbz = O=C(OCc1ccccc1)*

As a reminder, the kcat is the number of substrate molecules converted per active site and unit of time at saturation.

As to “activated pro-TGase (wild type) (Streptomyces hygroscopicus)”, in series [1], the Km was 59.5 ± 2.3 mM and the kcat came out at 31.5 ± 1.7 s⁻¹.
Consider `NC(=O)CC[C@H](NC(=O)OCc1ccccc1)C(=O)NCC(=O)O` [N-CBZ-Gln-Gly] (Cbz-Gln-Gly-OH), for which the values for the Km in the series on activated pro-TGase [2], in the series on activated pro-TGase [3] and in the series with activated pro-TGase [4] were 54.7 ± 2.1 mM, 48.4 ± 2.4 mM and 47 ± 1.5 mM, respectively.

Values taken from paper PMC4535380, “Overproduction of pro-transglutaminase from Streptomyces hygroscopicus in Yarrowia lipolytica and its biochemical characterization” (BMC Biotechnology, 2015).
